Measured values taken from US11479528B2, “Heat shock protein 90 inhibitors” (TAIPEI MEDICAL UNIVERSITY, priority 2017, dated 2022).

What was measured:
[1] = tested on: breast MDA-MB-231; assay: Sulforhodamine B (SRB) assay, breast MDA-MB-231; type: cell-based; details: Homo sapiens, MDA-MB-231; Table 2; SRB; read-out: MDA-MB-231 GI50
Description: Human cancer cells were purchased from the American Type Culture Collection (Manassas, Va., USA). These cell lines were cultured in RPMI 1640 medium or DMEM supplemented with 10% FBS (v/v) and pencillin (100 U/mL)/streptomycin (100 ug/mL)/amphotericin B (0.25 ug/mL). Cultures were maintained at 37° C. in a humidified atmosphere of 5% CO2/95% air.
Cells were seeded in 96-well plates in medium with 5% fetal bovine serum. After 24 h, cells were fixed with 10% trichloroacetic acid to represent cell population at the time of drug addition (T0). After additional incubation of DMSO or drugs for 48 h, cells were fixed with 10% trichloroacetic acid and sulforhodamine B at 0.4% (w/v) in 1% acetic acid was added to stain cells. Unbound sulforhodamine B was washed out by 1% acetic acid and sulforhodamine B-bound cells were solubilized with 10 mmol/L Trizma base. The absorbance was read at a wavelength of 515 nm. Using the following absorbance measurements, such as time zero (T0), control growth (C), and cell growth in the presence of the drug (Tx), the percentage growth was calculated at each of the compound concentrations levels. Percentage growth inhibition was calculated as […].

[2] = molecular target: HSP90 α protein (Homo sapiens, UniProt P07900); assay: HSP90 ATP-binding / fluorescence polarization competition assay (enzyme inhibition)
Description: To assess the inhibition of HSP90 activity within a cellular context, cells were treated with certain substituted aromatic compounds of formula (I) and the inhibition of HSP90 ATP-binding activity in cells was determined by using an ATP pull-down assay. Cells were treated with the compounds for 24 hours and then lysed in TNESV buffer (50 mM Tris, 2 mM EDTA, […], 1 mM activated sodium orthovanadate, 25 mM NaF, 1% Triton X-100 [pH 7.5]) for 30 min at 4° C. Lysates were spun for 30 min at 12000 rpm at 4° C. Protein (200 ug) was incubated with conditioned γ-ATP-polyacrylamide resin in incubation buffer (10 mM Tris-HCl, 50 mM KCl, 5 mM MgCl2, 20 mM Na2MoO4, 0.01% Nonidet P-40) overnight at 4° C., rotating. The resin was then washed four times with incubation buffer. Bound proteins were isolated by boiling with SDS buffer. For the competition studies, fluorescence polarization assays were performed under the following conditions: each 96-well plate contained 5 nM fluorescent GM (geldanamycin), 30 nM HSP90 α protein, and tested inhibitor in a final volume of 100 uL. For each assay, background wells (buffer only), tracer controls (free, fluorescent GMonly), and bound GM controls (fluorescent GM in the presence of HSP90) were included on each assay plate. The fraction of tracer bound to HSP90 was correlated to the mP value and plotted against log 10 values of competitor concentrations. The inhibitor concentration at which 50% of bound GM was displaced was obtained by fitting the data.

[3] = tested on: leukemia HL60; assay: MTT antiproliferative assay, HL60; type: cell-based; details: Homo sapiens, HL-60
[4] = tested on: lymphoblast MOLT4; assay: MTT antiproliferative assay, MOLT4; type: cell-based; details: Homo sapiens, MOLT-4
[5] = tested on: bone marrow K562; assay: MTT antiproliferative assay, K562; type: cell-based; details: Homo sapiens
[6] = tested on: HSP90 client proteins, i.e., EGFR, Akt, CDK-4, and HSP70, in HCT-116 tumor cells; assay: Western blot of HSP90 client proteins in HCT-116 tumor cells; type: cell-based, human; details: HCT-116 cells, 24 hours after treatment
Description: Western blot analysis was performed to detect cell apoptotic signaling activated by substituted aromatic compounds of formula (I). Cells were harvested by scraping with lysis buffer (1 mM EGTA, 1 mM EDTA, 150 mM NaCl, 1% Triton X-100, 2.5 mM sodium pyrophosphate, 1 mM PMSF, 1 mM Na3VO4, 1 ug/mL leupeptin, 1 ug/mL aprotinin, 5 mM NaF in 20 mM Tris-HCl buffer, pH 7.5). Cell lysates were centrifuged at 13,000 g for 30 min. Total protein was determined and equal amounts of protein were separated by SDS-PAGE and immunoblotted with specific antibodies. Proteins were visualized by enhanced chemiluminescence (Amersham, Buckinghamshire, UK).
Total cellular extracts were obtained 24 hours after treatment.

[7] = tested on: human colon HCT116 xenograft; assay: Human colon HCT116 xenograft model; details: qd, po; for TGI, tumor growth inhibition: n = 7-8
Description: An in vivo study was conducted to evaluate the efficacy of compounds of formula (I) in suppressing tumor growth in a human colon HCT116 xenograft model.

[8] = tested on: human lung NSCLC A549 cancer xenograft; assay: Human lung NSCLC A549 cancer xenograft model; type: in vivo; details: daily oral administration
[9] = Pharmacokinetic profiles in rat; details: in vivo; for half-life: T1/2, rat
Description: A pharmacokinetic study was conducted to evaluate the pharmacokinetic properties of compounds of formula (I).

[10] = Maximum tolerated dose and therapeutic index in vivo; details: in vivo, po

CCN(C(=O)c1cc(C(C)C)c(O)cc1O)c1cccnc1 [Compound 18b, N-ethyl-2,4-dihydroxy-5-isopropyl-N-(pyridin-3-yl)benzamide]
GI50 [1]: 90 ± 10 nM | IC50 [2]: 110 ± 3.13 nM | IC50 [3]: 240 ± 40 nM | IC50 [4]: 190 ± 10 nM | IC50 [5]: 130 ± 90 nM | expression levels of the chaperone HSP70 [6]: increase | levels of HSP90 client proteins (EGFR, Akt, CDK-4) [6]: substantial depletion | Loss of Body ([7]; 25 mg/kg): 0% | TGI, tumor growth inhibition ([7]; 25 mg/kg): 55.6% | Loss of Body ([7]; 100 mg/kg): 0% | TGI, tumor growth inhibition ([7]; 100 mg/kg): 74.3% | TGI ([8]; 25 mg/kg): 46.7% | TGI ([8]; 50 mg/kg): 46.9% | TGI ([8]; 100 mg/kg): 50.9% | body weight loss ([8]; 25, 50, and 100 mg/kg): without significant body weight loss | Vd ([9]; iv, 2 mg/kg): 5.5 ± 1.1 L/kg | AUC(0-inf) ([9]; iv, 2 mg/kg, IV (2 mg/kg)): 520 ± 14 ng·h/mL | clearance ([9]; iv, 2 mg/kg, CL, IV (2 mg/kg)): ~64 mL/min/kg | half-life ([9]; iv, 2 mg/kg, IV (2 mg/kg)): 4 ± 1.7 h | bioavailability ([9]; oral, 20 mg/kg): 25% | Cmax ([9]; po, 20 mg/kg): 40 ± 13 ng/mL | Tmax ([9]; po, 20 mg/kg): 6 ± 2 h | AUC(0-inf) ([9]; po, 20 mg/kg, PO (20 mg/kg)): ~1310 ng·h/mL | half-life ([9]; po, 20 mg/kg, PO (20 mg/kg)): ~27.7 h | MTD [10]: 250 mg/kg
